Measurements published in patent US8569344B2, “N-piperidinyl acetamide derivatives as calcium channel blockers” (Zalicus Pharmaceuticals Ltd., priority 2008, dated 2013).

What was measured:
[1] = molecular target: T1, human α1H T-type channels (Homo sapiens, UniProt O95180); experiment: T-type calcium channel block, whole cell patch clamp in HEK cells (α1H); format: cell-based; details: HEK cells, patch clamp, mainly non-inactivated protocol; values above 10 μM shown as 10 μM; read-out: T-type Calcium Channel Block α1H IC50
T1 construct: expressed in transfected cells; host or cells: HEK 293

[2] = molecular target: T2, human α1G T-type channels (Homo sapiens, UniProt O43497); experiment: T-type calcium channel block, whole cell patch clamp in HEK cells (α1G); format: cell-based; details: HEK cells, patch clamp, mainly non-inactivated protocol; values above 10 μM shown as 10 μM, below 0.30 μM shown as 0.30 μM; read-out: T-type Calcium Channel Block α1G IC50
T2 construct: expressed in transfected cells; host or cells: HEK 293
T2 sequence (O43497 whole entry): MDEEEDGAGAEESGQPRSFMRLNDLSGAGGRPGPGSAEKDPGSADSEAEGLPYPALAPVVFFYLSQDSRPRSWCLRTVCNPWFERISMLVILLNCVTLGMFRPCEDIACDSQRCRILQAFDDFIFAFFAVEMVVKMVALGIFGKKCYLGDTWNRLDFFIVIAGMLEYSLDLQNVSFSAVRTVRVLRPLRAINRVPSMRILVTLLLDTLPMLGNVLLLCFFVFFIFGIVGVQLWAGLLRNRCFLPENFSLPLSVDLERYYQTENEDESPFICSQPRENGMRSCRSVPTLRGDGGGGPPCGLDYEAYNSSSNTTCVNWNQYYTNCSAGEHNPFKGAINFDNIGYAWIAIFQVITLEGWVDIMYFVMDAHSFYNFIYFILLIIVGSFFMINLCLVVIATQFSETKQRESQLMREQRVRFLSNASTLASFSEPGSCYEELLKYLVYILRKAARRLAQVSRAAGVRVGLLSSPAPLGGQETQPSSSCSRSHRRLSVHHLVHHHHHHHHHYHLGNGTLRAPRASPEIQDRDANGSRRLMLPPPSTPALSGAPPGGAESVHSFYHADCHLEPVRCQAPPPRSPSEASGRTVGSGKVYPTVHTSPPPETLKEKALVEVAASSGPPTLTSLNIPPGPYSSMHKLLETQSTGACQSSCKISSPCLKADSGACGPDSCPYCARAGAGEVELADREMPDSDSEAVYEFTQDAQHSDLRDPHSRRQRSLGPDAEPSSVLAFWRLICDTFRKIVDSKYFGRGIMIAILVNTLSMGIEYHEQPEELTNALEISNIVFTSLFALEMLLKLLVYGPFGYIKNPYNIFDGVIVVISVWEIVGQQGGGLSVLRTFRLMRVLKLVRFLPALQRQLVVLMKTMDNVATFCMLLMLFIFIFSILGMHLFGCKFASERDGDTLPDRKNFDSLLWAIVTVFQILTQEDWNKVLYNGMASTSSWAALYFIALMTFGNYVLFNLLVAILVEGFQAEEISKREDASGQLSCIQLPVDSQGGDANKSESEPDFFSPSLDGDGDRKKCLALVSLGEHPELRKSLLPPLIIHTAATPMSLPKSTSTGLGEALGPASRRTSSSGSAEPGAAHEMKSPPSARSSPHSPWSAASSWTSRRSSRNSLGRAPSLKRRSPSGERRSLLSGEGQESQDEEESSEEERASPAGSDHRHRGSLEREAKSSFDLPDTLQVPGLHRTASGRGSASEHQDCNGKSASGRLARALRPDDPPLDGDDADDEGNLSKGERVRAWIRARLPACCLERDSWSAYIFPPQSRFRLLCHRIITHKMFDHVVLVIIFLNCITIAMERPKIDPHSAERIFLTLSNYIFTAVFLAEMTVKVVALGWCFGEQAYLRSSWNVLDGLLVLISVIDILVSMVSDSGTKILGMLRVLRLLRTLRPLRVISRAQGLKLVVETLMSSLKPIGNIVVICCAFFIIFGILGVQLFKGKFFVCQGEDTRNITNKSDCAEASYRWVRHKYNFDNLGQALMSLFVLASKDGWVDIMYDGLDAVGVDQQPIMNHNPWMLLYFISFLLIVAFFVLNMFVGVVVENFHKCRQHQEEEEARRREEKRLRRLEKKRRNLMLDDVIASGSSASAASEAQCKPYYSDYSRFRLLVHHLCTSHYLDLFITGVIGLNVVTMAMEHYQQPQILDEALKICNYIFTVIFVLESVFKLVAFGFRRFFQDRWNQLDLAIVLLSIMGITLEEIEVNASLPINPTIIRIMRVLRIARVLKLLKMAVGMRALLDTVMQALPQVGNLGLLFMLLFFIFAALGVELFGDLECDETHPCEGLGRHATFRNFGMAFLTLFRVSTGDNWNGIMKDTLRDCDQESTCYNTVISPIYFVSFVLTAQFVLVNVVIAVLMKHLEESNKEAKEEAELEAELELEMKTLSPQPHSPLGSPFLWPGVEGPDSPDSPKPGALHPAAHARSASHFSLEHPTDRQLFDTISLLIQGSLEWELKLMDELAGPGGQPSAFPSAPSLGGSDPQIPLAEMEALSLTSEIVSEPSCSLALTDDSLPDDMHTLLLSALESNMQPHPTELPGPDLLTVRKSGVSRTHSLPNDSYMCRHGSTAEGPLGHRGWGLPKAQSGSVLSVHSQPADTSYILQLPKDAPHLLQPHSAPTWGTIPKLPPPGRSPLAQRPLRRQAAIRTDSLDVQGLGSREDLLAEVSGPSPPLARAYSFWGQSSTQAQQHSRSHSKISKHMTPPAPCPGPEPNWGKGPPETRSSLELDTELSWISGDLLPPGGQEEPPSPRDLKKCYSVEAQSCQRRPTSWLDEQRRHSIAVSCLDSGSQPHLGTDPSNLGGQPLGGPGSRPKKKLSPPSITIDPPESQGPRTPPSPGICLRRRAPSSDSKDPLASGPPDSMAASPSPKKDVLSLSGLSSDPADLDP

T1 sequence (O95180 whole entry): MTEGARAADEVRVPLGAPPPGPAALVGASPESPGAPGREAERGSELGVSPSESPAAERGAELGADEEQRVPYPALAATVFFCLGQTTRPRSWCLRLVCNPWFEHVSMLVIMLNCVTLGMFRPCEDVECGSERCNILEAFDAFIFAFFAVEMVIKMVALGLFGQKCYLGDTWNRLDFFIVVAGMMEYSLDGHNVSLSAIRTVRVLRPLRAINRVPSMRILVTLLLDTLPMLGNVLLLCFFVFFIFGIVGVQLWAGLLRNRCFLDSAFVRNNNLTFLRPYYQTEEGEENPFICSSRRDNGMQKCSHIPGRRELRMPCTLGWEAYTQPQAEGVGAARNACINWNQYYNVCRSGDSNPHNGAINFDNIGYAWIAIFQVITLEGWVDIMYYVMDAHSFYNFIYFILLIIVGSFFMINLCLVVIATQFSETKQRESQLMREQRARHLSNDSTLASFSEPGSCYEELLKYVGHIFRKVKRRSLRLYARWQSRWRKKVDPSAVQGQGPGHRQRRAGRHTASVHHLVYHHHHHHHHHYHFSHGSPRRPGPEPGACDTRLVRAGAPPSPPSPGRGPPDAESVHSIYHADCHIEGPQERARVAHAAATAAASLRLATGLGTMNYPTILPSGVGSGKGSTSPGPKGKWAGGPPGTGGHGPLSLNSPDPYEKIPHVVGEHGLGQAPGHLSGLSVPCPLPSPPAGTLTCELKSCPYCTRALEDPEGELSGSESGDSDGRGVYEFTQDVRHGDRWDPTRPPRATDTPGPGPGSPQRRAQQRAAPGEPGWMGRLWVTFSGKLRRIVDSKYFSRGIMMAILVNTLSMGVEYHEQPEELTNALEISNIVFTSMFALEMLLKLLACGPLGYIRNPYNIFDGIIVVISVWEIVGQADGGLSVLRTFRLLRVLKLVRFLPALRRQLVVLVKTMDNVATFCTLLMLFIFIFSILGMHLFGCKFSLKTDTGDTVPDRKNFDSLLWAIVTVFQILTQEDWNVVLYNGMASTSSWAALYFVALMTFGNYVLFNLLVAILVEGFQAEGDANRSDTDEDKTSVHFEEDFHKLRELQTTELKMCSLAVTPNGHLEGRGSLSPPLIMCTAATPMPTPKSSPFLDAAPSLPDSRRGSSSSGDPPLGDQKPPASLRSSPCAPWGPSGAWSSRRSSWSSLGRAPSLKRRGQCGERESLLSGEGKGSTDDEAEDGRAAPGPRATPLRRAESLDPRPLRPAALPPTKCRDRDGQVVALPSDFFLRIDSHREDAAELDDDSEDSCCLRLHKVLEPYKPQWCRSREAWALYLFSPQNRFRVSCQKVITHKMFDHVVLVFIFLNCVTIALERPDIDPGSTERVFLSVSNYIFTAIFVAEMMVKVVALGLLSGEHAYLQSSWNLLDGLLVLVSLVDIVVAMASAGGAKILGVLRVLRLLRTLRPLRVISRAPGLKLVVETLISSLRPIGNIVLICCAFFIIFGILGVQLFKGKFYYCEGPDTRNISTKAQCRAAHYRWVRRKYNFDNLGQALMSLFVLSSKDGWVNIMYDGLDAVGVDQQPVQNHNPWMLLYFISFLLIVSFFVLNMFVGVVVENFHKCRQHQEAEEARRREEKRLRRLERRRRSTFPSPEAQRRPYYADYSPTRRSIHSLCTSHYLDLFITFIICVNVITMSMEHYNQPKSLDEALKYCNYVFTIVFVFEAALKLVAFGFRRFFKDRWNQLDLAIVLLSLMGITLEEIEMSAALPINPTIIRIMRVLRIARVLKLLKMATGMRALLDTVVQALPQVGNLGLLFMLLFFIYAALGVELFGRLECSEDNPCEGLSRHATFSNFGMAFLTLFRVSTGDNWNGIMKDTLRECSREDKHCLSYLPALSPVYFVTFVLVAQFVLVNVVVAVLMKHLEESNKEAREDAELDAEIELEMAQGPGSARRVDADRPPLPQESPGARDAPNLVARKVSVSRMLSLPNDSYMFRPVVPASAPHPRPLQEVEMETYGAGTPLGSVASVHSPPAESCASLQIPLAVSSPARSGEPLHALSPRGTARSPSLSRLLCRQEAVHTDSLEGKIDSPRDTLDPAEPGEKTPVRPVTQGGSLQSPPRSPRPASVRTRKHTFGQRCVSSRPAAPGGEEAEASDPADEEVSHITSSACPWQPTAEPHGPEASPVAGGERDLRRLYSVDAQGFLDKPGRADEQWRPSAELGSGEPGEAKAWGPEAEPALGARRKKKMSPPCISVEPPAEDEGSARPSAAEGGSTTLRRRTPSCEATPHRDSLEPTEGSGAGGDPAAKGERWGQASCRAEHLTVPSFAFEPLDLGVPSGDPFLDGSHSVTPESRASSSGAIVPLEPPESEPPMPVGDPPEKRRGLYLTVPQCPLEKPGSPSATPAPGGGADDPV

Row | SMILES | IC50 [1] | IC50 [2]
1 | CC(C)(C)Oc1cccc(C(=O)NCC2CCN(CCNS(=O)(=O)C3CC3)CC2)c1 [Compound 229, 3-tert-butoxy-N-((1-(2-(cyclopropanesulfonamido)ethyl)piperidin-4-yl)methyl)benzamide] | > 10000 nM | > 10000 nM
2 | O=C(NCC1CCN(CCNS(=O)(=O)C2CC2)CC1)c1cc(F)cc(C(F)(F)F)c1 [Compound 230, N-((1-(2-(cyclopropanesulfonamido)ethyl)piperidin-4-yl)methyl)-3-fluoro-5-(trifluoromethyl)benzamide] | 850 nM | 4760 nM
3 | O=C(/C=C/c1cc(F)cc(F)c1)NCC1CCN(CCNS(=O)(=O)C2CC2)CC1 [Compound 231, (E)-N-((1-(2-(cyclopropanesulfonamido)ethyl)piperidin-4-yl)methyl)-3-(3,5-difluorophenyl)acrylamide] | > 10000 nM | > 10000 nM
4 | O=C(NCC1CCN(CCNS(=O)(=O)C2CC2)CC1)c1ccc(OC(F)(F)F)cc1 [Compound 232, N-((1-(2-(cyclopropanesulfonamido)ethyl)piperidin-4-yl)methyl)-4-(trifluoromethoxy)benzamide] | 2870 nM | 5010 nM
5 | Cc1cc(C)cc(C(=O)NCC2CCN(CCNS(=O)(=O)C3CC3)CC2)c1 [Compound 233, N-((1-(2-(cyclopropanesulfonamido)ethyl)piperidin-4-yl)methyl)-3,5-dimethylbenzamide] | 1380 nM | 2040 nM
6 | O=C(NCC1CCN(CCNS(=O)(=O)C2CC2)CC1)c1cccc(OC(F)(F)F)c1 [Compound 234, N-((1-(2-(cyclopropanesulfonamido)ethyl)piperidin-4-yl)methyl)-3-(trifluoromethoxy)benzamide] | 970 nM | 1450 nM
7 | COc1cc(C(=O)NCC2CCN(CCNS(=O)(=O)C3CC3)CC2)cc(C(F)(F)F)c1 [Compound 235, N-((1-(2-(cyclopropanesulfonamido)ethyl)piperidin-4-yl)methyl)-3-methoxy-5-(trifluoromethyl)benzamide] | 440 nM | < 300 nM
8 | CC(C)S(=O)(=O)NCCN1CCC(CNC(=O)c2cccc(Cl)c2)CC1 [Compound 236, 3-chloro-N-((1-(2-(1-methylethylsulfonamido)ethyl)piperidin-4-yl)methyl)benzamide] | 1720 nM | 860 nM
9 | CC(C)(C)c1ccc(C(=O)NCC2CCN(CCNS(=O)(=O)C3CC3)CC2)cc1 [Compound 238, 4-tert-butyl-N-((1-(2-(cyclopropanesulfonamido)ethyl)piperidin-4-yl)methyl)benzamide] | > 10000 nM | > 10000 nM
10 | CC(C)(C)NCC(=O)N1CCC(CNC(=O)c2cc(C(F)(F)F)cc(C(F)(F)F)c2)CC1 [Compound 239, N-((1-(2-(tert-butylamino)acetyl)piperidin-4-yl)methyl)-3,5-bis(trifluoromethyl)benzamide] | 1730 nM | < 300 nM
11 | O=C(NCC1CCN(C(=O)CN2CCCC(O)C2)CC1)c1cc(C(F)(F)F)cc(C(F)(F)F)c1 (stereo not shown) [Compound 240, N-((1-(2-(3-hydroxypiperidin-1-yl)acetyl)piperidin-4-yl)methyl)-3,5-bis(trifluoromethyl)benzamide] | > 10000 nM | > 10000 nM
12 | CCCCCNCC(=O)N1CCC(CNC(=O)c2cc(C(F)(F)F)cc(C(F)(F)F)c2)CC1 [Compound 241, N-((1-(2-(pentylamino)acetyl)piperidin-4-yl)methyl)-3,5-bis(trifluoromethyl)benzamide] | 520 nM | < 300 nM
13 | CCC1CCCCN1CC(=O)N1CCC(CNC(=O)c2cc(C(F)(F)F)cc(C(F)(F)F)c2)CC1 (stereo not shown) [Compound 243, N-((1-(2-(2-ethylpiperidin-1-yl)acetyl)piperidin-4-yl)methyl)-3,5-bis(trifluoromethyl)benzamide] | 810 nM | 530 nM
14 | O=C(NCC1CCN(C(=O)CNCCCN2CCOCC2)CC1)c1cc(C(F)(F)F)cc(C(F)(F)F)c1 [Compound 244, N-((1-(2-(3-morpholinopropylamino)acetyl)piperidin-4-yl)methyl)-3,5-bis(trifluoromethyl)benzamide] | > 10000 nM | 7190 nM
15 | CN(CC(=O)N1CCC(CNC(=O)c2cc(C(F)(F)F)cc(C(F)(F)F)c2)CC1)C1CCCCC1 [Compound 246, N-((1-(2-(cyclohexyl(methyl)amino)acetyl)piperidin-4-yl)methyl)-3,5-bis(trifluoromethyl)benzamide] | 1130 nM | 1310 nM
16 | O=C(NCC1CCN(C(=O)CNC2CCCC2)CC1)c1cc(C(F)(F)F)cc(C(F)(F)F)c1 [Compound 247, N-((1-(2-(cyclopentylamino)acetyl)piperidin-4-yl)methyl)-3,5-bis(trifluoromethyl)benzamide] | 500 nM | < 300 nM

Row | SMILES | IC50 [1] | IC50 [2]
17 | CC1CCCCC1NCC(=O)N1CCC(CNC(=O)c2cc(C(F)(F)F)cc(C(F)(F)F)c2)CC1 (stereo not shown) [Compound 248, N-((1-(2-(2-methylcyclohexylamino)acetyl)piperidin-4-yl)methyl)-3,5-bis(trifluoromethyl)benzamide] | 480 nM | < 300 nM
18 | O=C(NCC1CCN(C(=O)CNC2CCCCC2)CC1)c1cc(C(F)(F)F)cc(C(F)(F)F)c1 [Compound 249, N-((1-(2-(cyclohexylamino)acetyl)piperidin-4-yl)methyl)-3,5-bis(trifluoromethyl)benzamide] | 580 nM | < 300 nM
19 | COC1CCN(CC(=O)N2CCC(CNC(=O)c3cc(C(F)(F)F)cc(C(F)(F)F)c3)CC2)CC1 [Compound 251, N-((1-(2-(4-methoxypiperidin-1-yl)acetyl)piperidin-4-yl)methyl)-3,5-bis(trifluoromethyl)benzamide] | > 10000 nM | > 10000 nM
20 | C[C@@H]1CCCCN1CC(=O)N1CCC(CNC(=O)c2cc(C(F)(F)F)cc(C(F)(F)F)c2)CC1 [Compound 252, (R)-N-((1-(2-(2-methylpiperidin-1-yl)acetyl)piperidin-4-yl)methyl)-3,5-bis(trifluoromethyl)benzamide] | 2340 nM | 2430 nM
21 | CCC1CCCN1CC(=O)N1CCC(CNC(=O)c2cc(C(F)(F)F)cc(C(F)(F)F)c2)CC1 (stereo not shown) [Compound 253, N-((1-(2-(2-ethylpyrrolidin-1-yl)acetyl)piperidin-4-yl)methyl)-3,5-bis(trifluoromethyl)benzamide] | 1310 nM | 480 nM
22 | O=C(NCC1CCN(C(=O)CN2CCCC(C(F)(F)F)C2)CC1)c1cc(C(F)(F)F)cc(C(F)(F)F)c1 (stereo not shown) [Compound 255, 3,5-bis(trifluoromethyl)-N-((1-(2-(3-(trifluoromethyl)piperidin-1-yl)acetyl)piperidin-4-yl)methyl)benzamide] | 2340 nM | 570 nM
23 | O=C(NCC1CCN(C(=O)CN2CCCC(F)(F)C2)CC1)c1cc(C(F)(F)F)cc(C(F)(F)F)c1 [Compound 256, N-((1-(2-(3,3-difluoropiperidin-1-yl)acetyl)piperidin-4-yl)methyl)-3,5-bis(trifluoromethyl)benzamide] | > 10000 nM | 5570 nM
24 | O=C(NCC1CCN(C(=O)CNC2CC2)CC1)c1cc(C(F)(F)F)cc(C(F)(F)F)c1 [Compound 257, N-((1-(2-(cyclopropylamino)acetyl)piperidin-4-yl)methyl)-3,5-bis(trifluoromethyl)benzamide] | 2420 nM | 3210 nM
25 | CC(C)(C)C1CCN(CC(=O)N2CCC(CNC(=O)c3cc(C(F)(F)F)cc(C(F)(F)F)c3)CC2)CC1 [Compound 258, N-((1-(2-(4-tert-butylpiperidin-1-yl)acetyl)piperidin-4-yl)methyl)-3,5-bis(trifluoromethyl)benzamide] | 3240 nM | 1180 nM
26 | C[C@H]1CC[C@H](NCC(=O)N2CCC(CNC(=O)c3cc(C(F)(F)F)cc(C(F)(F)F)c3)CC2)CC1 [Compound 264, N-((1-(2-((1r,4r)-4-methylcyclohexylamino)acetyl)piperidin-4-yl)methyl)-3,5-bis(trifluoromethyl)benzamide] | 530 nM | < 300 nM
27 | CC(C)(C)NCC(=O)N1CCC(CNC(=O)c2cc(F)cc(C(F)(F)F)c2)CC1 [Compound 265, N-((1-(2-(tert-butylamino)acetyl)piperidin-4-yl)methyl)-3-fluoro-5-(trifluoromethyl)benzamide] | 3760 nM | 2060 nM
28 | CCCCCNCC(=O)N1CCC(CNC(=O)c2cc(F)cc(C(F)(F)F)c2)CC1 [Compound 267, 3-fluoro-N-((1-(2-(pentylamino)acetyl)piperidin-4-yl)methyl)-5-(trifluoromethyl)benzamide] | 870 nM | 390 nM
29 | CC1CCCN(CC(=O)N2CCC(CNC(=O)c3cc(F)cc(C(F)(F)F)c3)CC2)C1 (stereo not shown) [Compound 268, 3-fluoro-N-((1-(2-(3-methylpiperidin-1-yl)acetyl)piperidin-4-yl)methyl)-5-(trifluoromethyl)benzamide] | > 10000 nM | > 10000 nM
30 | CCC1CCCCN1CC(=O)N1CCC(CNC(=O)c2cc(F)cc(C(F)(F)F)c2)CC1 (stereo not shown) [Compound 269, N-((1-(2-(2-ethylpiperidin-1-yl)acetyl)piperidin-4-yl)methyl)-3-fluoro-5-(trifluoromethyl)benzamide] | 3140 nM | 1400 nM
31 | CN(CC(=O)N1CCC(CNC(=O)c2cc(F)cc(C(F)(F)F)c2)CC1)C1CCCCC1 [Compound 272, N-((1-(2-(cyclohexyl(methyl)amino)acetyl)piperidin-4-yl)methyl)-3-fluoro-5-(trifluoromethyl)benzamide] | > 10000 nM | 2840 nM
32 | O=C(NCC1CCN(C(=O)CNC2CCCC2)CC1)c1cc(F)cc(C(F)(F)F)c1 [Compound 273, N-((1-(2-(cyclopentylamino)acetyl)piperidin-4-yl)methyl)-3-fluoro-5-(trifluoromethyl)benzamide] | 1420 nM | 360 nM
